According to US7148240B2, “Aminoalkoxybenzoyl-benzofuran or benzothiophene derivatives, method for preparing same and compositions containing same” (Sanofi-Aventis, priority 2000, dated 2006):

| SMILES | melting point |
| --- | --- |
| CCCCc1oc2cc(C)c(C(=O)OC)cc2c1C(=O)c1ccc(OCCCN2CCCCC2)cc1.Cl | 181 to 183 °C |
| CCCCc1oc2cccc(C(=O)OC)c2c1C(=O)c1ccc(OCCCN2CCCCC2)cc1.O=C(O)C(=O)O [Example 31, Methyl 2-butyl-3-[4-(3-(1-piperidinyl)propoxy]benzoyl]-1-benzofuran-4-carboxylate oxalate] | 160 °C |
